The results in this text go back to patent US5451516A, “Bifunctional protein from carrots (Daucus carota) with aspartokinase and homoserine dehydrogenase activities” (priority 1991, dated 1995).

Read-outs that look alike come from different tables or passages of the source.

The target in data set [1] is T1, carrot (Daucus carota L. cv Danvers) aspartokinase form II (AKII, Peak II; threonine-sensitive) of the bifunctional AK-HSDH protein (Daucus carota, UniProt P37142).
T1 construct: AK was purified by a series of column chromatography steps; endogenous in cells; host or cells: carrot (Daucus carota L. cv Danvers) cell suspension culture, protein partly purified by gel filtration and DEAE chromatography
T1 sequence (P37142 88-921): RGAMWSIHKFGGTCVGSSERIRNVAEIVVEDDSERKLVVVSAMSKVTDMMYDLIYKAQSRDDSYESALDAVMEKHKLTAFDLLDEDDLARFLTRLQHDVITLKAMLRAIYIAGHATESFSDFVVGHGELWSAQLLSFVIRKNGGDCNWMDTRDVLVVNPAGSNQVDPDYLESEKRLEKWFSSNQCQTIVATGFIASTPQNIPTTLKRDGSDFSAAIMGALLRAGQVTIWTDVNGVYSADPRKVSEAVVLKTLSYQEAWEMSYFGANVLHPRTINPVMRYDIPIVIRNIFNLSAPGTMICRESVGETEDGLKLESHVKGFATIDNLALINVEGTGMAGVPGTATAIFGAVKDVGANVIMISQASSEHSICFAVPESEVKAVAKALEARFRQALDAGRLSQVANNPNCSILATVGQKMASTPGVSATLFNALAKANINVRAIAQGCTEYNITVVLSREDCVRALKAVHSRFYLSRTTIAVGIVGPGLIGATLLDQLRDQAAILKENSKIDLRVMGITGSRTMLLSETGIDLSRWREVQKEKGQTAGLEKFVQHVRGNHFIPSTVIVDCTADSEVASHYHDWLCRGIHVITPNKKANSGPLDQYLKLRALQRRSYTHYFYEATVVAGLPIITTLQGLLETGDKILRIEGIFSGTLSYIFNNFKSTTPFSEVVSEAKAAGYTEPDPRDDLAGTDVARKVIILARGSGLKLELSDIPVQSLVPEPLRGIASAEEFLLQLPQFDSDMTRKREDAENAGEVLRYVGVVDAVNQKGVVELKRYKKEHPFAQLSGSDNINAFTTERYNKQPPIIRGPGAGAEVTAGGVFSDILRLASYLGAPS
Nature of the data set: Aspartokinase activity, hydroxamate method (second eluting DEAE peak, AKII). Type of data set: biochemical. How it is done:
(§1) The first eluting peak (28-32 min), AKI, was inhibited by lysine and was relatively insensitive to threonine (See Table II). The second peak (44-48 min), AKII, was inhibited by threonine and was relatively insensitive to lysine. These two peaks were kinetically different as well as having different feedback inhibition patterns. The Km(asp) for AKI was approximately 1 mM and for AKII was approximately 9 mM. Experimental conditions could affect which AK activities were observed. AK activity inhibited by lysine was not observed unless lysine was added to the homogenization buffer. If the pH of the sample was lowered to pH 6 before anion exchange, sensitivity to lysine was lost, although the total amount of AK activity remained unchanged. […] Furthermore, the lysine-sensitive activity could not be eluted from the cation-exchange medium with KC1.
AK was purified by a series of column chromatography steps. The cells were harvested after 5 days and disrupted in a nitrogen bomb as described for HSDH (B. Matthews (1989), supra) except that the threonine concentration was reduced to 1 mM and 1 mM lysine was added to the extraction buffer. The crude extract was concentrated by 60% ammonium sulfate before the first gel filtration through Biogel A-0.5 m (4.5 cm×47 cm) equilibrated with 50 mM Tris-HCl pH 7.5, 10 mM 2-mercaptoethanol, 1 mM EDTA, 1 mM lysine, 1 mM threonine and 20% glycerol. Fractions containing AK activity were combined, concentrated by the addition of an equal volume of saturated ammonium sulfate for a second gel filtration through Sephadex G-150 (2.5 cm×39 cm) and equilibrated with the same buffer plus 0.2 M KC1. Fractions with AK activity were combined, concentrated by the addition of an equal volume of saturated ammonium sulfate and dialyzed against 16 mM Tris-HCl pH 7.5, 10 mM 2-mercaptoethanol, 1 mM lysine, 1 mM threonine and 20% glycerol. The dialyzed sample was loaded onto an Altex Spherogel TSK DEAE-5PW column (21.5 mm×15 cm). AK activity was eluted over 65 min with a gradient from 0-0.5 M KCl in 20 mM Mes pH 6, 5 mM 2-mercaptoethanol, 1 mM lysine, 1 mM threonine, and 20% glycerol. Fractions containing activity were combined, diluted four-fold and applied to an Altex Spherogel TSK DEAE-5PW column (7.5 mm×7.5 cm) equilibrated with 50 mM Tris-HCl pH 7.5 containing 5 mM 2-mercaptoethanol,1 mM lysine, 1 mM threonine and 20% glycerol fractions containing AK activity were combined and diluted four-fold and reapplied to the column equilibrated with the same buffer containing 20 mM aspartate. Fractions with AK activity were concentrated by filtration through Centricon-303 filters (Amicon) and stored at -20° C.
Aspartokinase activity was assayed by the hydroxamate method as described in P. Bryan et al., Biochem Biophys Res Comm 41: 1211-1217 (1970). […]

Data set [2] has as its system carrot (Daucus carota L. cv Danvers) aspartokinase form I (AKI, Peak I; lysine-sensitive) of the bifunctional AK-HSDH protein. Nature of the data set: Aspartokinase activity, hydroxamate method (first eluting DEAE peak, AKI). The following applies: for % Control AK activity +lys (10 mM): 10 mM lysine; for % Control AK activity +thr (10 mM): 10 mM threonine. Type of data set: biochemical.

Substrate in data set [3]: N[C@@H](CC(=O)O)C(=O)O
Nature of the data set: Aspartokinase activity, hydroxamate method (second eluting DEAE peak, AKII). The following applies: other: AKII, second peak (44-48 min) from DEAE pH 6, 37.0 °C. Type of data set: biochemical, Daucus carota. How it is done: as §1
AK was purified by a series of column chromatography steps. The cells were harvested after 5 days and disrupted in a nitrogen bomb as described for HSDH (B. Matthews (1989), supra) except that the threonine concentration was reduced to 1 mM and 1 mM lysine was added to the extraction buffer. The crude extract was concentrated by 60% ammonium sulfate before the first gel filtration through Biogel A-0.5 m (4.5 cm×47 cm) equilibrated with 50 mM Tris-HCl pH 7.5, 10 mM 2-mercaptoethanol, 1 mM EDTA, 1 mM lysine, 1 mM threonine and 20% glycerol. […]

Take `NCCCC[C@H](N)C(=O)O` [lys, lysine]: the remaining activity at 10000 µM in data set [1] (read-out: % Control AK activity +lys (10 mM), prep ak33II, 10 mM lysine) came to 75%; in data set [1] (read-out: % Control AK activity +lys (10 mM), prep ak45II, 10 mM lysine), 91%. Also, the “% Control AK activity +lys (10 mM)” value in data set [2] (prep ak32I) is 21 % Control; in data set [2] (prep ak33I), 39 % Control.

As for `C[C@@H](O)[C@H](N)C(=O)O` [thr, threonine], the remaining activity at 10000 µM turned out to be 32% in data set [1] (prep ak33II, 10 mM threonine, read-out: % Control AK activity +thr (10 mM)) and 33% in data set [1] (prep ak45II, 10 mM threonine, read-out: % Control AK activity +thr (10 mM)). For the same molecule, the “% Control AK activity +thr (10 mM)” value was found to be 68 % Control in data set [2] (prep ak32I) and 71 % Control in data set [2] (prep ak33I).

B1: carrot (Daucus carota L. cv Danvers) aspartokinase form II (AKII, Peak II; threonine-sensitive) of the bifunctional AK-HSDH protein (Daucus carota) (protein)
chain: RGAMWSIHKFGGTCVGSSERIRNVAEIVVEDDSERKLVVVSAMSKVTDMMYDLIYKAQSRDDSYESALDAVMEKHKLTAFDLLDEDDLARFLTRLQHDVITLKAMLRAIYIAGHATESFSDFVVGHGELWSAQLLSFVIRKNGGDCNWMDTRDVLVVNPAGSNQVDPDYLESEKRLEKWFSSNQCQTIVATGFIASTPQNIPTTLKRDGSDFSAAIMGALLRAGQVTIWTDVNGVYSADPRKVSEAVVLKTLSYQEAWEMSYFGANVLHPRTINPVMRYDIPIVIRNIFNLSAPGTMICRESVGETEDGLKLESHVKGFATIDNLALINVEGTGMAGVPGTATAIFGAVKDVGANVIMISQASSEHSICFAVPESEVKAVAKALEARFRQALDAGRLSQVANNPNCSILATVGQKMASTPGVSATLFNALAKANINVRAIAQGCTEYNITVVLSREDCVRALKAVHSRFYLSRTTIAVGIVGPGLIGATLLDQLRDQAAILKENSKIDLRVMGITGSRTMLLSETGIDLSRWREVQKEKGQTAGLEKFVQHVRGNHFIPSTVIVDCTADSEVASHYHDWLCRGIHVITPNKKANSGPLDQYLKLRALQRRSYTHYFYEATVVAGLPIITTLQGLLETGDKILRIEGIFSGTLSYIFNNFKSTTPFSEVVSEAKAAGYTEPDPRDDLAGTDVARKVIILARGSGLKLELSDIPVQSLVPEPLRGIASAEEFLLQLPQFDSDMTRKREDAENAGEVLRYVGVVDAVNQKGVVELKRYKKEHPFAQLSGSDNINAFTTERYNKQPPIIRGPGAGAEVTAGGVFSDILRLASYLGAPS
notes: AK was purified by a series of column chromatography steps; The cells were harvested after 5 days; endogenous in cells; host or cells: carrot (Daucus carota L. cv Danvers) cell suspension culture, protein partly purified by gel filtration and DEAE chromatography
As to B1, the Km (commonly the concentration of substrate that gives half-maximal velocity) in data set [3] is on record as 9 mM.
